Experimental data reported in patent US20060189608A1, “Methods for treating ocular angiogenesis, retinal edema, retinal ischemia, and diabetic retinopathy using selective RTK inhibitors” (Alcon, Inc., priority 2005, published 2006).
pIC50: −log10 of the molar value.

Legend:
FGFR = test: Kinase inhibition profile, related RTK; type: biochemical; settings: ATP concentration of 1 nM
INSR = INSR (Homo sapiens, UniProt P06213); test: Kinase inhibition profile, non-related TK; type: biochemical; settings: ATP concentration of 1 nM
FYN = FYN (Homo sapiens, UniProt P06241); test: Kinase inhibition profile, non-related TK; type: biochemical; settings: ATP concentration of 1 nM
[1] = test system: laser-induced choroidal neovascularization (CNV); test: Prevention of laser-induced CNV, intravitreal injection, mouse; type: in vivo, C57BL/6J mice; settings: for inhibition of CNV as compared to vehicle-injected eyes: 5 ul intravitreal immediately after laser, 14 days post-laser
Procedure: (§1) Methods. CNV was generated by laser-induced rupture of Bruch's membrane. Briefly, 4 to 5 week old male C57BL/6J mice were anesthetized using intraperitoneal administration of ketamine hydrochloride (100 mg/kg) and xylazine (5 mg/kg) and the pupils of both eyes dilated with topical ocular instillation of 1% tropicamide and 2.5% Mydfin®. One drop of topical cellulose (Gonioscopic®) was used to lubricate the cornea. A hand-held cover slip was applied to the cornea and used as a contact lens to aid visualization of the fundus. Three to four retinal burns were placed in randomly assigned eye (right or left eye for each mouse) using the Alcon 532 nm EyeLite laser with a slit 5 lamp delivery system. The laser burns were used to generate a rupture in Bruch's membrane, which was indicated ophthalmoscopically by the formation of a bubble under the retina. Only mice with laser burns that produced three bubbles per eye were included in the study. Bums were typically placed at the 3, 6, 9 or 12 o'clock positions in the posterior pole of the retina, avoiding the branch retinal arteries and veins.
(§2) Each mouse was randomly assigned into one of the following treatment groups: noninjected controls, sham-injected controls, vehicle-injected mice, or one of three RTKi-injected groups. Control mice received laser photocoagulation in both eyes, where one eye received a sham injection, i.e. a pars plana needle puncture. […] The intravitreal injection was performed immediately after laser photocoagulation. At 14 days post-laser, all mice were anesthetized and systemically perfused with fluorescein-labeled dextran. Eyes were then harvested and prepared as choroidal flat mounts with the RPE side oriented towards the observer. All choroidal flat mounts were examined using a fluorescent microscope. Digital images of the CNV were captured, where the CNV was identified as areas of hyperfluorescence within the pigmented background. Computerized image analysis was used to delineate and measure the two dimensional area of the hyperfluorescent CNV per lesion (um^2) for the outcome measurement. The median CNV area/burn per mouse per treatment group or the mean CNV area/burn per treatment group was used for statistical analysis depending on the normality of data distribution; P≦0.05 was considered significant.

[2] = test system: existing laser-induced choroidal neovascularization (CNV); test: Regression of existing laser-induced CNV, intravitreal injection, mouse; type: in vivo; settings: for Mean CNV / Median CNV: intravitreal at day 7, day 14; for inhibition of CNV as compared to vehicle-injected eyes at day 14 post-laser: intravitreal at day 7; for reduction of median CNV area compared to CNV present at 7 days post-laser: intravitreal at day 7, read at day 14
Procedure: as §1, §2
METHODS: CNV was generated by laser-induced rupture of Bruch's membrane as described above in Example 3. Each mouse was randomly assigned to one of the following treatment groups: noninjected controls, sham-injected controls, vehicle-injected mice, AL-39324 injected groups. Control mice received laser photocoagulation in both eyes, where one eye received a sham injection, i.e. a pars plana needle puncture. […] All mice received laser photocagulation at day 0. For mice randomized to an injection group, a single intravitreal injection was performed at 7 days post-laser. Also at 7 days post-laser, several mice with no-injection were euthanized and their eyes used for controls. At 14 days post-laser, all remaining mice were euthanized and systemically perfused with fluorescein-labeled dextran. Eyes were then harvested and prepared as choroidal flat mounts with the RPE side oriented towards the observer. Choroidal flat mounts were analyzed as described above in Example 3.

[3] = test system: laser-induced choroidal neovascularization (CNV); test: Laser-induced CNV, oral gavage, prevention paradigm, mouse; type: in vivo; settings: for inhibition of CNV: prevention paradigm; for Mean CNV / Median CNV: prevention
Procedure: as §1, §2
METHODS: CNV was generated by laser-induced rupture of Bruch's membrane as described in Example 3 above. […] The mice received an oral gavage of 0, 1.5, 5, or 10 mg/kg twice per day and for 14 days post-laser. […] Oral gavage dosing was continued twice per day for 14 days post-laser. Several mice were Is euthanized at day 7 post-laser and used for controls. At 14 days post-laser, all mice were anesthetized and systemically perfused with fluorescein-labeled dextran. Eyes were then harvested and prepared as choroidal flat mounts as described in Example 3 above.

[4] = test system: VEGF-induced retinal vascular permeability; test: VEGF-induced retinal vascular permeability, intravitreal injection, rat; type: in vivo, Sprague-Dawley rats; settings: 10 μl intravitreal
Procedure: METHODS: Adult Sprague-Dawley rats were anesthetized with intramuscular ketamine/xylazine and their pupils dilated with topical cycloplegics. […] Ten μl of each compound was intravitreally injected in each treatment eye (n=6 eyes per group). Three days following first intravitreal injection, all animals received an intravitreal injection of 10 μl 400 ng hr VEGF in both eyes. Twenty-four hours post-injection of VEGF, intravenous infusion of 3% Evans blue dye was performed in all animals, where 50 mg/kg of Evans blue dye was injected via the lateral tail vein during general anesthesia. After the dye had circulated for 90 minutes, the rats were euthanized. The rats were then systemically perfused with balanced salt solution, and then both eyes of each rat were immediately enucleated and the retinas harvested using a surgical microscope. After measurement of the retinal wet weight, the Evans blue dye was extracted by placing the retina in a 0.2 ml formamide (Sigma) and then the homogenized and ultracentrifuged. Blood samples were centrifuged and the plasma diluted 100 fold in formamide. For both retina and plasma samples, 60 μl of supernatant was used to measure the Evans blue dye absorbance (ABS) with at 620/740 nm. The blood-retinal barrier breakdown and subsequent retinal vascular permeability as measured by dye absorbance were calculated as means±s.e.m. of net ABS/wet weight/plasma ABS. A two-tailed Student's t-test was used for pair wise comparisons between OS and OD eyes in each group. One way ANOVA was used to determine an overall difference between treatment means, where P≦0.05 was considered significant.

Chain of FYN (P06241 whole entry): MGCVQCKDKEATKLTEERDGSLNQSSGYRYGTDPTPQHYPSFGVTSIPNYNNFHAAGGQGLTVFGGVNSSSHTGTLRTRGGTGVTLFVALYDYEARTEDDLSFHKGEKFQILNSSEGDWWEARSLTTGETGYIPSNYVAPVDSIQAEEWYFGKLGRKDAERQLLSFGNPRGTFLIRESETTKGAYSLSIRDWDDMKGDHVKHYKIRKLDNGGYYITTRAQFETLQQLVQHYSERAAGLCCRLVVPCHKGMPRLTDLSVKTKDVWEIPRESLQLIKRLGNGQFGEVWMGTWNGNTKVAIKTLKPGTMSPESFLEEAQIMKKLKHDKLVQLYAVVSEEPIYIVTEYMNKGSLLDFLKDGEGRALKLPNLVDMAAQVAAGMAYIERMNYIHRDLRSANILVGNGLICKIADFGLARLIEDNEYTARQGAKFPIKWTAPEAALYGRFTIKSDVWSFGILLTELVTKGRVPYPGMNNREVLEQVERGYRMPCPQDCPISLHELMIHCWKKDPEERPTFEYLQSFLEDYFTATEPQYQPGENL
Chain of INSR (P06213 28-1382): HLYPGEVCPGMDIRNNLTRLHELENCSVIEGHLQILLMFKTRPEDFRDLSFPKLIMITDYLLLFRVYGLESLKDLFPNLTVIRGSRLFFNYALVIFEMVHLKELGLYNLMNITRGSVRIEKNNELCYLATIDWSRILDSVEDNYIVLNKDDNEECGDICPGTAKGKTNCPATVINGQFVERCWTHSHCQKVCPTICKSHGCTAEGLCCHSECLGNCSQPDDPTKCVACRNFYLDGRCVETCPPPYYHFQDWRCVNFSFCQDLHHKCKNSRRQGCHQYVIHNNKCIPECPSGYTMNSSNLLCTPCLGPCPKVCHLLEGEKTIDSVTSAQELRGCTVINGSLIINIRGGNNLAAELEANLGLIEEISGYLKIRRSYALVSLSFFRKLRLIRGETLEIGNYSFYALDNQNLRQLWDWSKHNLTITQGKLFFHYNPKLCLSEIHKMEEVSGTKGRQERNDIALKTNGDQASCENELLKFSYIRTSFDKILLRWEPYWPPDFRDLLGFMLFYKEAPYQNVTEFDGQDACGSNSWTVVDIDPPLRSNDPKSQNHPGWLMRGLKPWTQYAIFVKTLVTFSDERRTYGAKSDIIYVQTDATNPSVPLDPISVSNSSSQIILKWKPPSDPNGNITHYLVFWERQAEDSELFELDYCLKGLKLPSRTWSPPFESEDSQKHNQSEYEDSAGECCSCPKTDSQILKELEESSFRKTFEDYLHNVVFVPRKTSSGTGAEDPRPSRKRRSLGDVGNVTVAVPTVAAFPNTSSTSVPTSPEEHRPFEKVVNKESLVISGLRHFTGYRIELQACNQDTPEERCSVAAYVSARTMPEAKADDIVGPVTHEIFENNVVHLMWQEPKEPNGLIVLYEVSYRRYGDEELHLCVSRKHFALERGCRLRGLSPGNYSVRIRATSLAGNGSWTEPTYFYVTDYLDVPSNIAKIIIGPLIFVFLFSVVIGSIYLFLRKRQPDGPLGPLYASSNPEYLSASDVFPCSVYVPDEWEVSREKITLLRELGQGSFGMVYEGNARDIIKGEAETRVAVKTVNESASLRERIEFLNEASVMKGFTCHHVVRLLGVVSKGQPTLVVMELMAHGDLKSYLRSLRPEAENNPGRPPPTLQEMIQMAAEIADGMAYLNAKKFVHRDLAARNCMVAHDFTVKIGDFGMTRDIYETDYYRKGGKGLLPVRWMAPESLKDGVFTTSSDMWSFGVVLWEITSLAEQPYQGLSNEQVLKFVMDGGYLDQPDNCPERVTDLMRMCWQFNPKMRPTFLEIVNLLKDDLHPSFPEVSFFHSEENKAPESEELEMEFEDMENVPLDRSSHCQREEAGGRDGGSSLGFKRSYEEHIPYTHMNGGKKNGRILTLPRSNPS

For `Cc1ccc(F)c(NC(=O)Nc2ccc(-c3cccc4[nH]nc(N)c34)cc2)c1` [AL-39324, N-[4-[3-amino-1H-indazol-4-yl)phenyl]-N′-(2-fluoro-5-methylphenyl)urea], the pIC50 (FGFR) was under 4.90, the pIC50 (INSR) was under 4.30 and the pIC50 (FYN) was under 4.30. The “CNV versus vehicle injected eyes” value ([1]; 0.3%, 5 ul intravitreal) was “marginal statistical difference”, the “mean±s.d. CNV area/burn per mouse” value ([1]; 0.3%, 5 ul intravitreal) was 44283±28886 um^2 and the “median CNV area/burn per mouse” value ([1]; 0.3%, 5 ul intravitreal) was 38891 um^2. The “mean±s.d. CNV area/burn per mouse” value ([1]; 1%, 5 ul intravitreal) was 21036±3100 um^2, the “median CNV area/burn per mouse” value ([1]; 1%, 5 ul intravitreal) was 21122 um^2 and the “inhibition of CNV as compared to vehicle-injected eyes” value ([1]; 1%) was 84.1%. For the same molecule, the “mean±s.d. CNV area/burn per mouse” value ([1]; 3%, 5 ul intravitreal) was 27288±12109 um^2, the “median CNV area/burn per mouse” value ([1]; 3%, 5 ul intravitreal) was 22665 um^2 and the “inhibition of CNV as compared to vehicle-injected eyes” value ([1]; 3%) was 83.0%. It also gave a Mean CNV ([2]; 1% (2 μl)) of 31000 µm², a Median CNV ([2]; 1% (2 μl)) of 28300 µm² and a Mean CNV ([2]; 1% (5 μl)) of 39200 µm². The Median CNV ([2]; 1% (5 μl)) was 36400 µm², the “inhibition of CNV as compared to vehicle-injected eyes at day 14 post-laser” value ([2]; 2 μl 1%) was 55.9% and the “reduction of median CNV area compared to CNV present at 7 days post-laser” value (from here on “reduction of median CNV area”) ([2]; 2 μl 1%) was 45.4%. For the same molecule, the Mean CNV ([2]; 3% (5 μl)) was 35200 µm², the Median CNV ([2]; 3% (5 μl)) was 30600 µm² and the “inhibition of CNV as compared to vehicle-injected eyes at day 14 post-laser” value ([2]; 3%) was 52.3%. The “inhibition of CNV as compared to vehicle-injected eyes at day 14 post-laser” value ([2]; 5 μl 1%) was 43.7%, the “reduction of median CNV area” value ([2]; 5 μl 1%) was 29.7% and the “reduction of median CNV area” value ([2]; 5 μl 3%) was 41.0%. The “inhibition of CNV” value ([3]; 3 mg/kg/day oral gavage) was “no significant inhibition”, the “Mean CNV” value ([3]; 3 mg/kg/day oral) was 21670 μm^2 and the “Median CNV” value ([3]; 3 mg/kg/day oral) was 22317 μm^2. For the same molecule, the “inhibition of CNV” value ([3]; 10 mg/kg/day oral gavage) was 84.3%, the “Mean CNV” value ([3]; 10 mg/kg/day oral) was 4046 μm^2 and the “Median CNV” value ([3]; 10 mg/kg/day oral) was 4137 μm^2. For the same molecule, the “inhibition of CNV” value ([3]; 20 mg/kg/d oral gavage) was “complete inhibition of CNV”, the “Mean CNV” value ([3]; 20 mg/kg/day oral) was 3266 μm^2 and the “Median CNV” value ([3]; 20 mg/kg/day oral) was 0 μm^2. For the same molecule, the “decrease of retinal vascular permeability as compared to vehicle-injected eyes” value (shortened to “decrease”) ([4]; 0.3%) was 50%, the “mean ABS±s.e.m. (net ABS/wet weight/plasma ABS, Evans blue)” value ([4]; 0.3%) was 4.84±0.64 and the “decrease” value ([4]; 1.0%) was 61%. The “mean ABS±s.e.m. (net ABS/wet weight/plasma ABS, Evans blue)” value ([4]; 1.0%) was 3.87±0.62, the “decrease” value ([4]; 3%) was 53% and the “mean ABS±s.e.m. (net ABS/wet weight/plasma ABS, Evans blue)” value ([4]; 3.0%) was 4.75±0.40.
